Patent publication US20230337672A1, “METHOD OF C[…] RUST FUNGUS HAVING RESISTANCE TO QoI FUNGICIDE” (SUMITOMO CHEMICAL COMPANY, LIMITED, priority 2020, published 2023)

Each molecule was assayed on soybean rust fungus (Phakopsora pachyrhizi) having an amino acid substitution of F129L in a mitochondrial cytochrome b protein (assay: Leaf disc test: preventive spray, then inoculation with soybean rust fungus spores, lesion area investigated). Conditions: Comparative Test Example 1 (Table A).
Assay type: in vivo
Method: A true leaf of a soybean (cultivar: Kurosengoku) was cut into a diameter of 1 cm to prepare each leaf disc. To each well of a 24 well microplate was dispensed 1 mL of an agar medium (agar concentration 1.2%), and then one of said leaf disc was placed on each well. To a mixture of Sorpol (registered trademark) 1200KX (0.5 µL), DMSO (4.5 µL), and xylene (5 µL) was added a DMSO solution (20 µL) comprising a test compound (10000 ppm), and the resulting mixture was mixed. The resulting mixture was diluted with ion exchange water to prepare a spray solution comprising a prescribed concentration of the test compound. Said spray solution was sprayed into each leaf disc at a ratio of 10 µL per leaf disc. After 1 day, an aqueous suspension of spores of soybean rust fungus (Phakopsora pachyrhizi) having an amino acid substitution of F129L in a mitochondrial cytochrome b protein (1.0 × 10^5/mL) was inoculated by spraying on each leaf disc. After the inoculation, the microplate was placed into an artificial climate chamber (Lighting: 6 hours, Lights-out: 18 hours, Temperature: 23° C., Humidity: 60%). After 1 day, the leaf discs were air-dried until water droplets on the surfaces of the leaf discs disappeared, and the microplate was placed into the artificial climate chamber again for 12 days. Then, lesion area of soybean rust was investigated. As a result, when the prescribed concentration was 50 ppm, each lesion area of leaf disc treated with any one of the Present compound 2, 6, 8, 25, 29, or 35 as the test compound was 30% or less relative to the lesion area of non-treated leaf disc.
Here, the term of “non-treated” means that a spray solution comprising a test compound was not sprayed into a leaf disc.
Each test is carried out according to the Test Example 1 by using any one of the Present compound S as the test compound with a prescribed concentration of 12.5 ppm. As a result, control effects on soybean rust can be confirmed in the leaf discs treated with test compounds.
Each test is carried out according to the Test Example 1 by using any one of the Present compound S as the test compound with a prescribed concentration of 3.1 ppm. As a result, control effects on soybean rust can be confirmed in the leaf discs treated with test compounds.
Each test was carried out according to the Test Example 1 by using the Present compound 2, 6, 8, 29 or 35, or azoxystrobin, dimoxystrobin, or metominostrobin as the test compound with a prescribed concentration of 50 ppm.
For `CO/C=C(/C(=O)OC)c1ccccc1Oc1cc(Oc2ccccc2C#N)ncn1` [Azoxystrobin, azoxystrobin, reference compound], the “Lesion area (%) at the concentration of 50 ppm” value (“Lesion area (%)” for short) was 100%.
For `CNC(=O)/C(=N/OC)c1ccccc1COc1cc(C)ccc1C` [Dimoxystrobin, dimoxystrobin, reference compound], the “Lesion area (%)” value was 100%.
With `CNC(=O)/C(=N/OC)c1ccccc1Oc1ccccc1` [Metominostrobin, metominostrobin, reference compound] the “Lesion area (%)” value was 100%.
For `CO/C=C(/C(=O)OC)c1cccc2oc(-c3ccccc3)nc12` [Present compound 2], the “Lesion area (%)” value was 10%.
In the case of `CO/C=C(/C(=O)OC)c1cccc2sc(-c3ccccc3)nc12` [Present compound 6], the “Lesion area (%)” value is reported as 30%.
For `CO/C=C(/C(=O)OC)c1cccc2ccc(-c3ccccc3)cc12` [Present compound 8], the “Lesion area (%)” value was 0%.
In the case of `Cn1nc(Cl)n(-c2cccc3oc(Cc4ccccc4)nc23)c1=O` [Present compound 29], the “Lesion area (%)” value is reported as 10%.
With `Cn1nc(Cl)n(-c2cccc3oc(COc4ccccc4)nc23)c1=O` [Present compound 35] the “Lesion area (%)” value was 0%.
